Laboratory results: US20030013660A1, “Dioxolane analogs for improved inter-cellular delivery” (Shire BioChem Inc., priority 2000, published 2003)

Legend:
hCNT3 = target: T1, hCNT3 (Homo sapiens, UniProt Q9HAS3); conditions: 100-fold non-radioactive troxacitabine, differentiated HL-60
T1 sequence (Q9HAS3 1-691): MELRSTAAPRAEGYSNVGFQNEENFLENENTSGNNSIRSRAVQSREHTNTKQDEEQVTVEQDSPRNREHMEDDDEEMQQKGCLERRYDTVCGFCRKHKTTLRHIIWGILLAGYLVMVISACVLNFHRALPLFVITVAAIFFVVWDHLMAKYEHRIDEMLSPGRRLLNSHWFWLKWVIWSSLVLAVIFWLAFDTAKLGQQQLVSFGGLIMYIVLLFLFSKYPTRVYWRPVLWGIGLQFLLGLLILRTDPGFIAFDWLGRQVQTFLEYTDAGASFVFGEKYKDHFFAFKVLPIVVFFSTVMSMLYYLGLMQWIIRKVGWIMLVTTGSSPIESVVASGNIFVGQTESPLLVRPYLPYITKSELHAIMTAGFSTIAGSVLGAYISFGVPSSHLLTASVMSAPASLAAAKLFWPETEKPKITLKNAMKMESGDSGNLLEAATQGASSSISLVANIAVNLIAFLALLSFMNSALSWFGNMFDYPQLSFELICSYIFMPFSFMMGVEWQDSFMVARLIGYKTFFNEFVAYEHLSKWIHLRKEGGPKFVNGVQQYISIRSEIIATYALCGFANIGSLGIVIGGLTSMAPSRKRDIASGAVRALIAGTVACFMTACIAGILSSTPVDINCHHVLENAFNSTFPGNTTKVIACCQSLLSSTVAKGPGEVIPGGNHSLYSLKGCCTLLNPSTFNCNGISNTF
Description: The ability of a high concentration (100-fold) of non-radioactive troxacitabine to inhibit the uptake of ^3H]uridine by hCNT3 was examined in a differentiated HL-60 model system [Ritzel et al. (2000), supra].

hENT1 [1] = target: T2, hENT1 (Homo sapiens, UniProt Q99808); experiment: Cellular uptake assay of [3H]nucleoside in CEM cells (es activity); format: in vitro ADME; set-up: endogenous in cells; conditions: compared with uridine
T2 sequence (Q99808 1-456): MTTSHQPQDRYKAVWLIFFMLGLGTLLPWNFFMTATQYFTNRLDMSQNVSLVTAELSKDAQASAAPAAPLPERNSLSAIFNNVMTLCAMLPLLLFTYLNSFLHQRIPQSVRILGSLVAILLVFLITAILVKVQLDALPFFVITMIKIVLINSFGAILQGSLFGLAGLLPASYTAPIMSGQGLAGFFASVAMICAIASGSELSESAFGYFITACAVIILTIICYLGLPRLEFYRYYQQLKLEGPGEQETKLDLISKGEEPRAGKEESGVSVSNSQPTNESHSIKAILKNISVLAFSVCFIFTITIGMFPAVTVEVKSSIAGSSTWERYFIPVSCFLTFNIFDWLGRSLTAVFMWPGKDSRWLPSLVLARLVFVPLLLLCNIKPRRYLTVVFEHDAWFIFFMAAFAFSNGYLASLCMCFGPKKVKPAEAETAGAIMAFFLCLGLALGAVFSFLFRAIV
Description: FIG. 1 Comparative uptake of 30 μM [^3H]-troxacitabine in CEM (Panel A) and CEM/ARAC8C (Panel B) cells. [^3H]-Uridine uptake in either the presence or absence of the hENT1 inhibitor, NBMPR or 5 mM non-radioactive uridine was included for comparison as a control substrate.
(§1) Cancer Res., 56: 4187-4191.
The transport of [^3H]uridine was inhibited in the presence either of the hENT1 inhibitor, NBMPR, or excess non-radioactive uridine.

hENT1 [2] = target: T2, hENT1; experiment: Cellular uptake assay of [3H]nucleoside in DU145 cells, with or without NBMPR or excess non-radioactive troxacitabine; format: in vitro ADME; set-up: The presence of functional es-mediated transport (hENT1) in DU145 cells; endogenous in cells; host or cells: DU145 cells
Description: as §1
This experiment is designed to show whether [^3H]L-troxacitabine (10 μM) is taken up by DU145 cells and if the rate of uptake is affected by the addition of high concentrations (1 mM) of non-radioactive troxacitabine.

hENT2 = target: T3, hENT2 (Homo sapiens, UniProt Q14542)
T3 sequence (Q14542 1-456): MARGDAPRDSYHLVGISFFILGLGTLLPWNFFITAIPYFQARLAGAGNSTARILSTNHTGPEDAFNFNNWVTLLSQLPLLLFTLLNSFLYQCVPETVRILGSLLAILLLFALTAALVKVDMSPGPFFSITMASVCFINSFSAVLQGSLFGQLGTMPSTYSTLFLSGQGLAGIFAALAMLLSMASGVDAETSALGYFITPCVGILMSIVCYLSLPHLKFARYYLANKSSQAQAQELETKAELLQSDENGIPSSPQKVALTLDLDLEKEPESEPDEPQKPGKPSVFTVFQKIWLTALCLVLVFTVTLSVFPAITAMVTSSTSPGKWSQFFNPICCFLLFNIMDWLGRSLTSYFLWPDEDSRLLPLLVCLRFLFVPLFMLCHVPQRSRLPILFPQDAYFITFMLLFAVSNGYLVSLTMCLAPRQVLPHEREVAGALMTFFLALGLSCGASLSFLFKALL
Description: B.Uptake of [^3H]troxacitabine either in the absence ( ? ) or presence of 100 nM NBMPR (▴), 100 μM dilazep (▾), 1 mM non-radioactive troxacitabine (♦) or 20 μM dipyridamole (●), using an expanded scale of 0-15 pmol/10^6 cells. Each data point represents the mean (±standard deviation) of three determinations.
Briefly, for adherent cells, uptake assays are conducted at room temperature under zero-trans conditions in either sodium-containing transport buffer (20 mM Tris/HCl, 3 mM K2HPO4, 1 mM MgCl2.6H2O, 2 mM CaCl2, 5 mM glucose and 130 mM NaCl, pH 7.4, 300±15 mOsm) or sodium-free transport buffer with NaCl replaced by N-methyl-D-glucamine. […] After the plates are drained, the cells are lysed with 5% Triton X-100 and mixed with Ecolite scintillation fluid to measure the cell-associated radioactivity (Beckman LS 6500 scintillation counter; Beckman-Coulter Canada, Mississauga, ON). Uptake at the zero time-point is determined by treating cells for 10 min at 4° C. with transport buffer containing 100 μM dilazep, then adding the radioactive nucleoside for 2 s before reaction termination as described above. […] Uptake at the zero time-point is determined by adding cells to cold transport buffer containing radiolabeled permeant and dilazep, and immediate centrifugation. Cell pellets are lysed and cell-associated radioactivity measured. […]

effect on [3H]uridine uptake by hCNT3 (hCNT3): no effect on uridine uptake
uptake of [3H]nucleoside over the 6-min time course (hENT1 [1]): taken up to a lesser degree
effect of NBMPR on uptake (hENT1 [2]): not affected
level of [3H] uptake (hENT1 [2]): low levels
effect of non-radioactive troxacitabine (1 mM) on uptake (hENT1 [2]; 10 μM [3H]L-troxacitabine): no significant effect
rate of uptake (hENT1 [2]; 10 μM, short (0-30s) and prolonged exposures (0-4 h)): very slow
inhibition of uptake by NBMPR, dilazep, dipyridamole or excess non-radioactive troxacitabine (hENT2): no substantial inhibition
Structure (SMILES): Nc1ccn([C@@H]2CO[C@H](CO)O2)c(=O)n1 [Troxacitabine, troxacitabine]
